Test: Evaluation of pharmacokinetic parameters for metronidazole following topical administration of 7.5 mg of metronidazole (1 g metronidazole topical lotion) for 4 days to the faces of 8 patients.
Type: ADME, organism-based
Set-up: dose 7.5 mg, route topical
Details: human, in vivo, topical or ocular, dosed compound id 31, dosed compound name METRONIDAZOLE, gender male and female, regimen Twice daily, study dosing duration 4 days, tissue Plasma

Cmax (sampling time1 5 days): 96 ng/mL | AUC at 96 h (read-out: AUC(0-24)): 962 ng·h/mL
Structure (SMILES): Cc1ncc([N+](=O)[O-])n1CCO [METRONIDAZOLE]

Source: ChEMBL document CHEMBL3832051, “DailyMed|setid=970a767a-7a65-4cdf-84fe-4dbe0a77b80a | METRONIDAZOLE - metronidazole lotion|Physicians Total Care, Inc”
